Laboratory results as given in ChEMBL document CHEMBL1201862, “PubChem BioAssay data set” (2004).
Calls of active or inactive are those of the source.

Legend:
[1] = biological target: T1, Tyrosyl-DNA phosphodiesterase 2 (Homo sapiens, UniProt O95551); test: potency against TDP2 phosphodiesterase activity – biochemical, epi absorbance, IC50, dose response (AID 743297)
T1 sequence (O95551 whole entry): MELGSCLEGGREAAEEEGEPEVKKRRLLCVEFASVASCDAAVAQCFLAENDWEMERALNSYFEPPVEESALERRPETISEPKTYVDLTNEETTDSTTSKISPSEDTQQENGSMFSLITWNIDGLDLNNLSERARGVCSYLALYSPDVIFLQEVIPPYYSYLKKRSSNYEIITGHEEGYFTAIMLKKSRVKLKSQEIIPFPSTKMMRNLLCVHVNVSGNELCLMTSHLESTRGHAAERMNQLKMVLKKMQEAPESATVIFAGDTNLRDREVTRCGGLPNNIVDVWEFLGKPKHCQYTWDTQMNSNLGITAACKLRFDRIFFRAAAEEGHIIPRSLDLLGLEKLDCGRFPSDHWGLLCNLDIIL

[2] = biological target: NAD-dependent protein deacylase sirtuin-5, mitochondrial (Homo sapiens, UniProt Q9NXA8); test: sirtuin-5 deacylation blockers, concentration series – biochemical, fluorescence imaging, cherry-pick, set 5, dose response (AID 720591);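 further: desuccinylation of succinyl peptide AMC substrate read as fluorescence after trypsin release; potency of inhibitors that lower fluorescence and may act on trypsin instead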
[3] = biological target: T2, Methionyl-tRNA synthetase, putative (Trypanosoma brucei brucei, UniProt Q38C91); assay type: functional, Trypanosoma brucei brucei strain 927/4 GUTat10.1;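 further: Read-out by fluorescence polarization, run as a confirmatory high-throughput counterscreen; potency of MetRS inhibitors measured by reduced AMP formation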
T2 sequence (Q38C91 whole entry): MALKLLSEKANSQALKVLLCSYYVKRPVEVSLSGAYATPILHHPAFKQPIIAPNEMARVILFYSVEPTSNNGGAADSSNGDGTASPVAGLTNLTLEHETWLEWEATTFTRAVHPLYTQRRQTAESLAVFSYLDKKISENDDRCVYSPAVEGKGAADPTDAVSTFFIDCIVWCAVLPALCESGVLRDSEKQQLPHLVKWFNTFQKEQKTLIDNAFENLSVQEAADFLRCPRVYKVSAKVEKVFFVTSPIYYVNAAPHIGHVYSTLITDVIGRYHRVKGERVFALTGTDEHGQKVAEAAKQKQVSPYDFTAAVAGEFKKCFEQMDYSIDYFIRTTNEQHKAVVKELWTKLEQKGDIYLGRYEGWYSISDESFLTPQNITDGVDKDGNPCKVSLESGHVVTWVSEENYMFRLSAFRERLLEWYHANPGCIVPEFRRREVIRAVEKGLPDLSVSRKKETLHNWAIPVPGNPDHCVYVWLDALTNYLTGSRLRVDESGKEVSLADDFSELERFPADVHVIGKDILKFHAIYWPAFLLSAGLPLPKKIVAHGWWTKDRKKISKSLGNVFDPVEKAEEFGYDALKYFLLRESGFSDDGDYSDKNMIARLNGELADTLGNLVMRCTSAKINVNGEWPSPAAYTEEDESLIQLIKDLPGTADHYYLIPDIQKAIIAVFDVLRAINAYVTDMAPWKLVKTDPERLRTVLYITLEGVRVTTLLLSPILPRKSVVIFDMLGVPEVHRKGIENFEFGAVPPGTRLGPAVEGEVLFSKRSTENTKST

[4] = biological target: T3, Long-chain-fatty-acid--AMP ligase FadD28 (Mycobacterium tuberculosis, UniProt P9WQ59); test: Fluorescence polarization aasay to screen for inhibitors that compete for the binding of FadD28 to a bisubstrate Measured in Biochemical System Using Plate Reader - 2147-01_Inhibitor_Dose_CherryPick_Activity.; assay type: functional, Mycobacterium tuberculosis H37Rv
T3 sequence (P9WQ59 whole entry): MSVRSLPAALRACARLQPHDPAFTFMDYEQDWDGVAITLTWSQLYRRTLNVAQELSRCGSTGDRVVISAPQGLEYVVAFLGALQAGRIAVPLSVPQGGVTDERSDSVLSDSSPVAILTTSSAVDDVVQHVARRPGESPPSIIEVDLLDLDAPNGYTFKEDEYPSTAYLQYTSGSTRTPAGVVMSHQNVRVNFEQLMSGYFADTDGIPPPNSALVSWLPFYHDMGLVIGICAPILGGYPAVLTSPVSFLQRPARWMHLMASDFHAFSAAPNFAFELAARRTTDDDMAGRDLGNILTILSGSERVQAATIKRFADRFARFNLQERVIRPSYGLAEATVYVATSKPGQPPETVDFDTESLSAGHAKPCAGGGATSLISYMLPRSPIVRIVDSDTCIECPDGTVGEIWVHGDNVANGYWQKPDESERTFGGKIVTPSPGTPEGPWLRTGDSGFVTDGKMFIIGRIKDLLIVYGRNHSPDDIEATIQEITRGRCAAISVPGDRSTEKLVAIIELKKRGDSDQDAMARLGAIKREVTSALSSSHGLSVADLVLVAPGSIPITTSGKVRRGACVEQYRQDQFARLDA

[5] = Counterscreen for inhibitors of Trypanosoma brucei methionyl tRNA synthetase (MetRS): Luminescence-based cell-based high throughput dose response assay to identify compounds that are cytotoxic to Jurkat human T lymphocyte cells.; assay type: functional
[6] = biological target: T4, Trace amine-associated receptor 1 (Homo sapiens, UniProt Q96RJ0); test: Counterscreen for agonists of the human trace amine associated receptor 1 (hTAAR1): Fluorescence-based cell-based high throughput dose response assay to identify hTAAR1 agonist that also desensitize TAAR1 receptor response.; assay type: functional
T4 sequence (Q96RJ0 whole entry): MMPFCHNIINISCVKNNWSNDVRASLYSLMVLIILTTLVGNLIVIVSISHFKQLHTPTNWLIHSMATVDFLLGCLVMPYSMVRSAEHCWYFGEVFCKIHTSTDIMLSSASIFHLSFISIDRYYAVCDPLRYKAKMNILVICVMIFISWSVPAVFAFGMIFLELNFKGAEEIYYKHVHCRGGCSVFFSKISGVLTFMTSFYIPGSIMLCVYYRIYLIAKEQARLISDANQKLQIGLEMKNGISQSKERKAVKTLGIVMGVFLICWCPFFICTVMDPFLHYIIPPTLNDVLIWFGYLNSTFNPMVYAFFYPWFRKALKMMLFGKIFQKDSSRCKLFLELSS

cells [7] = assay type: functional, cell-based
cells [8] = assay type: functional, cell-based; remark: listed apart in the source
[9] = biological target: T4, Trace amine-associated receptor 1; test: Fluorescence-based cell-based high throughput dose response assay to identify agonists of the human trace amine associated receptor 1 (TAAR1).; assay type: functional
Kallikrein-7 = Kallikrein-7 (Homo sapiens, UniProt P49862); test: Fluorescence Intensity-based biochemical primary high throughput dose response assay to identify activators of kallikrein-7 (K7) zymogen.
[10] = biological target: FAD-linked sulfhydryl oxidase ALR (Homo sapiens, UniProt P55789); test: ALR-catalysed DTT oxidation blockers – biochemical, H2O2 detection, luminescence, cherry-pick, dose response (AID 493248)
[11] = biological target: T5, Sentrin-specific protease 1 (Homo sapiens, UniProt Q9P0U3); test: SENP1 catalytic domain blockers, concentration series – biochemical, kinetic FRET, dose response (AID 651697); assay type: functional; conditions: read-out: IC50_Mean
T5 sequence (Q9P0U3 whole entry): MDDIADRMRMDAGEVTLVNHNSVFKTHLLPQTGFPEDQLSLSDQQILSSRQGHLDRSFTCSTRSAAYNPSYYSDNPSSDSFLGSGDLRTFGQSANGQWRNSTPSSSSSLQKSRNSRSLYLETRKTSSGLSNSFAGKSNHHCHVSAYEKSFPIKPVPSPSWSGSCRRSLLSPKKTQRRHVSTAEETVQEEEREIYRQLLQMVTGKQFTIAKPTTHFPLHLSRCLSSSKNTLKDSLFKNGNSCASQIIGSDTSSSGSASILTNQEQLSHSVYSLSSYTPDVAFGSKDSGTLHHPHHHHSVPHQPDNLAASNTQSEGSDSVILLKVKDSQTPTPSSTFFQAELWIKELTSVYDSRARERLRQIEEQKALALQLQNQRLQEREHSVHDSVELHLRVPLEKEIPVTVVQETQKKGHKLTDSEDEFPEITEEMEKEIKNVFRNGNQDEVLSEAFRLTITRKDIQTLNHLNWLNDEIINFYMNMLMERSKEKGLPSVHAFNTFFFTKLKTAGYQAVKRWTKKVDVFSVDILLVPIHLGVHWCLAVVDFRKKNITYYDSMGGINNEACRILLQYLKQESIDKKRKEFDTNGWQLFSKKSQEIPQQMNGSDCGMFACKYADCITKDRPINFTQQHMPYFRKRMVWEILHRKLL

[12] = biological target: T5, Sentrin-specific protease 1; test: Dose response confirmation of small molecule inhibitors of the catalytic domain of the SUMO protease, SENP1 in a FRET assay.; assay type: functional; conditions: read-out: IC50_Mean
Aurora kinase B = Aurora kinase B (Homo sapiens, UniProt Q96GD4); assay type: functional
Aurora kinase A = biological target: T6, Aurora kinase A (Homo sapiens, UniProt O14965); assay type: functional;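 further: value from the Navigating the Kinome kinase panel profiling, panel entry STK6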
T6 sequence (O14965 whole entry): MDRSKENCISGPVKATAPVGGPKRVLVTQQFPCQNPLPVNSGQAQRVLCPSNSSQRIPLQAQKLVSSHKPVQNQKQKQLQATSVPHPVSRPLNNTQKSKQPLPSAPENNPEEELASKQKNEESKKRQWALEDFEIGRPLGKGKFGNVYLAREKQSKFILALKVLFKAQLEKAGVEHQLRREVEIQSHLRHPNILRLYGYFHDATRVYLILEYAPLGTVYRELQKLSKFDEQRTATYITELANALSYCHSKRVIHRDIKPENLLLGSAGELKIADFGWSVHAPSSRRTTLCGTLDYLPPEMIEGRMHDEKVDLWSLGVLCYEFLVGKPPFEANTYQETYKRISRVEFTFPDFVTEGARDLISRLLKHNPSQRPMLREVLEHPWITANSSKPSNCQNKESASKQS

[13] = intracellular Trypanosoma cruzi inhibitors in host cells – cell-based, plate reader, cherry-pick samples, set 3, dose response (AID 651818); assay type: functional;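 further: compounds incubated with infected cells for about four days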
[14] = activation of miR-122 Renilla sensor silencing – cell-based, Huh7 psiCHECK-miR122, Renilla luciferase, cherry-picked, dose response (AID 651956); assay type: functional;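 further: huh7 hepatoma cells stably carrying a psiCHECK-2 miR-122 sensor plasmid; renilla luciferase signal reporting endogenous miR-122 activity after 48 h compound exposure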
[15] = general cell-killing toxicity readout – plate reader, dry powder samples, cytotoxicity control for PAX8 inhibitor project, dose response (AID 743021); assay type: functional, cell-based
[16] = OVCAR-3 cell viability loss – plate reader, dry powder samples, PAX8 inhibitor project, dose response (AID 743044); assay type: functional, cell-based
[17] = OVCAR8 cell viability loss – plate reader, dry powder samples, PAX8 project, dose response (AID 743197); assay type: functional, cell-based; conditions: OVCAR-8
Paired box protein Pax-8 = Paired box protein Pax-8 (Homo sapiens, UniProt Q06710); test: PAX8 transcriptional activity inhibition in RMG-I – RMG-I cells, luciferase, cherry-pick, dose response (AID 687027); assay type: functional, cell-based;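 further: luciferase reporter driven by Pax8 target thyroperoxidase promoter measured by SteadyGlo luminescence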
Chain of Paired box protein Pax-8 (Q06710 whole entry): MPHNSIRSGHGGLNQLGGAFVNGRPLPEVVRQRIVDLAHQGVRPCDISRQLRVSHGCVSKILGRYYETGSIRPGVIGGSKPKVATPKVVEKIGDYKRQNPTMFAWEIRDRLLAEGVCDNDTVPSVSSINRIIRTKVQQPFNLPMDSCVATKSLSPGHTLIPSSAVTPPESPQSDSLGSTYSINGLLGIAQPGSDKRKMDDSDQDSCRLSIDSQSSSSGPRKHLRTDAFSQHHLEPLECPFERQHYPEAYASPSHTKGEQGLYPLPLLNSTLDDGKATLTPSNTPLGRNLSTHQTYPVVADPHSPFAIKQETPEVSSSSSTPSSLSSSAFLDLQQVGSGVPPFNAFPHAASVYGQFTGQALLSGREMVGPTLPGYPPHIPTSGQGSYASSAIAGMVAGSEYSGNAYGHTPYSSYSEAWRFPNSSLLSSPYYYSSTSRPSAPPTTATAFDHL

Chain of Kallikrein-7 (P49862 whole entry): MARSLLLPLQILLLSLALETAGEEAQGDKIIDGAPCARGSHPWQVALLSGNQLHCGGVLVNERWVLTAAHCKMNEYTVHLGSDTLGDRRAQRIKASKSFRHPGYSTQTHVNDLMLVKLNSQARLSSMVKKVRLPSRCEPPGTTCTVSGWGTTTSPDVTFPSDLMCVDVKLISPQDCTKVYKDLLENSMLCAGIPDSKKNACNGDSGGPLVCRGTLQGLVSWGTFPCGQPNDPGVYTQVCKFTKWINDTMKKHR
Chain of Aurora kinase B (Q96GD4 whole entry): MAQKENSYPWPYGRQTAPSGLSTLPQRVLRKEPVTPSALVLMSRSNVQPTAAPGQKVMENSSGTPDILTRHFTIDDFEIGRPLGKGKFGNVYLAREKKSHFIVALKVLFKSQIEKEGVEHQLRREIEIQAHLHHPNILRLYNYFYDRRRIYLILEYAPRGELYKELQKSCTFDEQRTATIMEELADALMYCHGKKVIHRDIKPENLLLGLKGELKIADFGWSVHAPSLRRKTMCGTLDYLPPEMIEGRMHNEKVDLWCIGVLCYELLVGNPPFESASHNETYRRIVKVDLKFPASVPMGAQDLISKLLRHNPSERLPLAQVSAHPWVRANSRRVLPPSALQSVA
Chain of NAD-dependent protein deacylase sirtuin-5, mitochondrial (Q9NXA8 whole entry): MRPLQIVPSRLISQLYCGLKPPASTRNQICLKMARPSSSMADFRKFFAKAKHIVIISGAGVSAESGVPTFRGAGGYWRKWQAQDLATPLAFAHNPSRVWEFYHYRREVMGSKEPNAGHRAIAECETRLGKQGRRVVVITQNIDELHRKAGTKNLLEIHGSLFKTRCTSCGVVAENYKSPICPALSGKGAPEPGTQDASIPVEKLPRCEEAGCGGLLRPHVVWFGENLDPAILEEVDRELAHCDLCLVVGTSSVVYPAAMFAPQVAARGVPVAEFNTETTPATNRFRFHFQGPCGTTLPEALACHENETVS
Chain of FAD-linked sulfhydryl oxidase ALR (P55789 whole entry, the tested form may be a part): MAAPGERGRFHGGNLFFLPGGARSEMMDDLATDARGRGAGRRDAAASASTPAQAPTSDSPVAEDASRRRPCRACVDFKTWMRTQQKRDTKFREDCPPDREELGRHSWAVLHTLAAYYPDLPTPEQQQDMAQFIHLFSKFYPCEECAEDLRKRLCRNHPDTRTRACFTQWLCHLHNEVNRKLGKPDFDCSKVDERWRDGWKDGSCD

CCCCn1c(NC(=O)c2ccc(Br)o2)c(C(=O)OCC)c2nc3ccccc3nc21
IC50 [1]: > 128 µM (inactive)

CCC1CN(C(=O)N2CCC(C(=O)Nc3ccccc3F)CC2)c2ccccc2O1 (stereo unspecified)
AC50 [2]: > 30 µM (inactive)

O=C(CSc1ccc(-c2nc3ccccc3[nH]2)cn1)Nc1ccc(S(=O)(=O)N2CCCC2)cc1
IC50 [3]: 8.73 µM (active)
AC50 [4]: > 100 µM (inactive)
IC50 [5]: 83.3 µM (inactive)

c1ccc2c(c1)CC1CNCc3cccc(c31)S2 (stereo unspecified)
IC50 [6]: 7.1 µM (active)
IC50 (cells [7]): > 29.9 µM (inactive)
EC50 (cells [8]): > 29.9 µM (inactive)
EC50 [9]: 5.87 µM (active)

O=C(Nc1ccc2[nH]c(O)nc2c1)c1c(F)c(F)c(F)c(F)c1F
EC50 (Kallikrein-7): 22.9 µM (inactive)

Cc1c(C)c2c(OCC(=O)N[C@@H](CC(C)C)C(=O)O)cc3c(c2oc1=O)CCC(C)(C)O3
EC50 (Kallikrein-7): > 69.5 µM (inactive)

COc1cc(/C=C2/SC(=S)N(CC(=O)O)C2=O)ccc1OC(=O)c1ccco1
AC50 [10]: 3.74 µM (active)
IC50 [11]: 4.75 µM (active)
IC50 [12]: 5.86 µM (active)

Cc1ccc(NC(=O)CNc2ccccc2N2CCCC2=O)cc1S(=O)(=O)N1CCOCC1
AC50 [4]: 21.8 µM (active)

COCCOC1CCC(n2nc(-c3ccc(Nc4nc5cc(Cl)ccc5o4)c(F)c3)c3c(N)ncnc32)CC1 (stereo unspecified)
Ki (Aurora kinase B): 0.01 µM (active)
Ki (Aurora kinase A): 0.0398 µM (active)

C[C@H](O)[C@@H]1C(=O)N2CCc3c([nH]c4ccccc34)[C@@H]2C[C@@H]1N(C)C(=O)NC1CCCCC1
EC50 (Kallikrein-7): 8.4 µM (active)

C[C@@H]1CCCCO[C@@H](CN(C)Cc2ccc(Cl)c(Cl)c2)[C@@H](C)CN([C@H](C)CO)C(=O)c2cc(NC(=O)c3ccccc3)ccc2O1
AC50 [13]: 6.25 µM (active)

C[C@H]1CN([C@@H](C)CO)C(=O)Cc2cc(N(C)C)ccc2O[C@@H]1CN(C)Cc1ccc(C(=O)Nc2ccccc2N)cc1
AC50 [13]: 0.794 µM (active)

CCCCCn1nnnc1-c1nc2cc3ccccc3cc2nc1O
IC50 [11]: 4.94 µM (active)
IC50 [12]: 1.29 µM (active)

C[C@H]1CN([C@@H](C)CO)C(=O)c2cc(-c3ccc(C#N)cc3)cnc2O[C@H]1CN(C)C(=O)Nc1ccc(C(F)(F)F)cc1
AC50 [14]: 7.44 µM (active)

C[C@@H]1CN([C@@H](C)CO)C(=O)Cc2cc(NS(=O)(=O)c3ccccc3)ccc2O[C@@H]1CN(C)S(=O)(=O)c1ccc(Cl)cc1
AC50 [13]: 6.08 µM (active)

C[C@@H]1CN([C@@H](C)CO)C(=O)Cc2cc(NC(=O)CCCCCC(=O)Nc3ccccc3N)ccc2O[C@@H]1CN(C)Cc1ccc(C(F)(F)F)cc1
AC50 [15]: 45.4 µM (active)
AC50 [16]: 30.1 µM (active)
AC50 [17]: 18 µM (active)
AC50 (Paired box protein Pax-8): 6.87 µM (active)

CC/C(=N\CCc1ccccc1)C1=C(O)CCC1=O
IC50 [6]: 2.34 µM (active)
IC50 (cells [7]): > 29.9 µM (inactive)
EC50 (cells [8]): > 29.9 µM (inactive)
EC50 [9]: 0.351 µM (active)

COc1ccc(CCNC(=O)/C=C/C(=O)O)cc1
IC50 [6]: > 29.9 µM (inactive)
IC50 (cells [7]): > 29.9 µM (inactive)
EC50 (cells [8]): > 29.9 µM (inactive)
EC50 [9]: 10.4 µM (inactive)
